The values below come from patent US11965039B2, “Compstatin analogues and their medical uses” (priority 2018, dated 2024).

Like-named read-outs stand apart in the source and are kept apart here. Starred links: 1 amine or outer side, 2 acyl side, 3 side chain; linkers in the order of their positions; H or OH if unused. Positions of bridges follow the written chain, without caps; N, C: chain ends. Non-standard residues stand in square brackets, D forms with d. Residues, ends and D or L forms follow the SMILES beside them. Groups on a side chain read outwards from the residue. *: point of attachment. Trp(1-Me) = Cn1cc(C[C@H](N)C(=O)O)c2ccccc21; C16 diacid = O=C(O)CCCCCCCCCCCCCCC(=O)*; γGlu = O=C(O)[C@H](CCC(=O)[*:2])N[*:1]; AEEA = NCCOCCOCC(=O)O; Sar = CNCC(=O)O

Data set [1] relates to classical complement pathway. In words: In vitro haemolysis assay (inhibition of classical complement pathway). It is filed as cell-based, human. The settings on record: human serum, sensitized sheep red blood cells. Summed up:
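Compound dilutions preincubated 15 min at room temperature with diluted human serum (titrated per batch for 70-90% maximal haemolysis), then antibody-sensitized sheep RBC (10^7/well) added for 30 min at 37 °C in Tris/casein buffer, pH 7.4. Stopped with EDTA; haemolysis read at 405 nm; IC50 by 4PL fit.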

A short description of data set [2]: Solubility test at 10 mg/mL (visual inspection and light scattering). It is filed as physicochemical. Particulars: for Solubility, Condition 1: Acetate pH 4; for Solubility, Condition 2: Acetate pH 5; for Solubility, Condition 3: Phosphate pH 6; for Solubility, Condition 4: Phosphate pH 7; for Solubility, Condition 5: Phosphate pH 7.5.
[3] abbreviates: Table 3, given as upper bounds, read-out: IC50, inhibition of hemolysis.

For `CC[C@H](C)[C@H](NC(C)=O)C(=O)N[C@H]1CSSC[C@@H](C(=O)N[C@H](C(=O)NCC(=O)N[C@@H](C)C(=O)N[C@@H](CCC(=O)O)C(=O)N[C@@H](CO)C(N)=O)[C@@H](C)O)NC(=O)[C@H](CCCNC(=N)N)NC(=O)[C@H](Cc2c[nH]cn2)NC(=O)[C@H](CCC(=O)O)NC(=O)CNC(=O)[C@H](Cc2c[nH]c3ccccc23)NC(=O)[C@H](CC(=O)O)NC(=O)[C@H](CCC(N)=O)NC(=O)[C@H](Cc2c[nH]c3ccccc23)NC(=O)[C@H]([C@@H](C)CC)NC1=O` [Compound 15] (Ac-ICIWQDWGEHRCTGAES-NH2; disulfide 2-12), the IC50 in data set [1] (setting [3]) was under 100 nM. In addition, the IC50 in data set [1] (Table 4, valine 3 vs isoleucine 3 pairs, read-out: CP hemolysis IC50) is 47 nM. Further, in data set [2], the “Solubility, Condition 1” value was “+ (“+” denotes solubility at the given condition, as determined by UV absorbance being less than 0.1 AU at 340 nm and the sample being clear when manually inspected)”; the “Solubility, Condition 2” value is “− (“−” denotes lack of solubility at the given condition, as UV absorbance at 340 nm exceeds 0.1 AU and/or it is visibly turbid or contains particles)”; the “Solubility, Condition 3” value is recorded as “− (“−” denotes lack of solubility at the given condition, as UV absorbance at 340 nm exceeds 0.1 AU and/or it is visibly turbid or contains particles)”; the “Solubility, Condition 4” value is “+ (“+” denotes solubility at the given condition, as determined by UV absorbance being less than 0.1 AU at 340 nm and the sample being clear when manually inspected)”. Further, the “Solubility, Condition 5” value in data set [2] is “+ (“+” denotes solubility at the given condition, as determined by UV absorbance being less than 0.1 AU at 340 nm and the sample being clear when manually inspected)”.
For the compound `CC[C@H](C)[C@@H]1NC(=O)[C@@H](NC(=O)[C@H](Cc2ccccc2)NC(=O)[C@H](C)NC(=O)[C@H](CO)NC(=O)CNC(=O)[C@H](CCC(=O)O)NC(C)=O)CSSC[C@@H](C(=O)N(C)CC(=O)N[C@@H](CCC(=O)O)C(N)=O)NC(=O)[C@H](CCCNC(=N)N)NC(=O)[C@H](Cc2c[nH]cn2)NC(=O)[C@H](CCC(=O)O)NC(=O)CNC(=O)[C@H](Cc2c[nH]c3ccccc23)NC(=O)[C@H](CC(=O)O)NC(=O)[C@H](CCC(N)=O)NC(=O)[C@H](Cc2c[nH]c3ccccc23)NC1=O` [Compound 45] (Ac-EGSAFCIWQDWGEHRC[Sar]E-NH2; disulfide 6-16), the IC50 in data set [1] (setting [3]) was under 100 nM. In data set [2], the “Solubility, Condition 1” value is recorded as “− (“−” denotes lack of solubility at the given condition, as UV absorbance at 340 nm exceeds 0.1 AU and/or it is visibly turbid or contains particles)”; the “Solubility, Condition 2” value was “+ (“+” denotes solubility at the given condition, as determined by UV absorbance being less than 0.1 AU at 340 nm and the sample being clear when manually inspected)”; the “Solubility, Condition 3” value was “+ (“+” denotes solubility at the given condition, as determined by UV absorbance being less than 0.1 AU at 340 nm and the sample being clear when manually inspected)”; the “Solubility, Condition 4” value was “+ (“+” denotes solubility at the given condition, as determined by UV absorbance being less than 0.1 AU at 340 nm and the sample being clear when manually inspected)”. Moreover, the “Solubility, Condition 5” value in data set [2] was “+ (“+” denotes solubility at the given condition, as determined by UV absorbance being less than 0.1 AU at 340 nm and the sample being clear when manually inspected)”.
Regarding `CC[C@H](C)[C@@H]1NC(=O)[C@@H](NC(=O)[C@H](Cc2ccccc2)NC(=O)[C@H](CCC(=O)O)NC(=O)[C@H](CO)NC(C)=O)CSSC[C@@H](C(=O)N(C)CC(=O)NCC(=O)N[C@@H](C)C(=O)N[C@@H](CCC(=O)O)C(=O)N[C@@H](CO)C(N)=O)NC(=O)[C@H](CCCNC(=N)N)NC(=O)[C@H](Cc2c[nH]cn2)NC(=O)[C@H](CCC(=O)O)NC(=O)CNC(=O)[C@H](Cc2c[nH]c3ccccc23)NC(=O)[C@H](CC(=O)O)NC(=O)[C@H](CCC(N)=O)NC(=O)[C@H](Cc2cn(C)c3ccccc23)NC1=O` [Compound 74] (Ac-SEFCI[Trp(1-Me)]QDWGEHRC[Sar]GAES-NH2; disulfide 4-14), the IC50 in data set [1] (setting [3]) is under 100 nM. Also, in data set [2], the “Solubility, Condition 1” value is given as “− (“−” denotes lack of solubility at the given condition, as UV absorbance at 340 nm exceeds 0.1 AU and/or it is visibly turbid or contains particles)”; the “Solubility, Condition 2” value is “+ (“+” denotes solubility at the given condition, as determined by UV absorbance being less than 0.1 AU at 340 nm and the sample being clear when manually inspected)”; the “Solubility, Condition 3” value was “+ (“+” denotes solubility at the given condition, as determined by UV absorbance being less than 0.1 AU at 340 nm and the sample being clear when manually inspected)”; the “Solubility, Condition 4” value is “+ (“+” denotes solubility at the given condition, as determined by UV absorbance being less than 0.1 AU at 340 nm and the sample being clear when manually inspected)”. The “Solubility, Condition 5” value in data set [2] was “+ (“+” denotes solubility at the given condition, as determined by UV absorbance being less than 0.1 AU at 340 nm and the sample being clear when manually inspected)”.
In the case of `CC[C@H](C)[C@@H]1NC(=O)[C@@H](NC(=O)[C@H](Cc2ccccc2)NC(=O)[C@H](CCC(=O)O)NC(=O)[C@H](CO)NC(C)=O)CSSC[C@@H](C(=O)N(C)CC(=O)N[C@@H](CCC(=O)O)C(N)=O)NC(=O)[C@H](CCCNC(=N)N)NC(=O)[C@H](Cc2c[nH]cn2)NC(=O)[C@H](CCC(=O)O)NC(=O)CN(C)C(=O)[C@H](Cc2c[nH]c3ccccc23)NC(=O)[C@H](CC(=O)O)NC(=O)[C@H](CCC(N)=O)NC(=O)[C@H](Cc2cn(C)c3ccccc23)NC1=O` [Compound 79, Ac-SEFC(1)I[1-Me-Trp]QDW[Sar]EHRC(1)[Sar]E-NH2] (Ac-SEFCI[Trp(1-Me)]QDW[Sar]EHRC[Sar]E-NH2; disulfide 4-14), the IC50 in data set [1] (setting [3]) is under 100 nM. For the same compound, in data set [2], the “Solubility, Condition 1” value is on record as “− (“−” denotes lack of solubility at the given condition, as UV absorbance at 340 nm exceeds 0.1 AU and/or it is visibly turbid or contains particles)”; the “Solubility, Condition 2” value is listed as “− (“−” denotes lack of solubility at the given condition, as UV absorbance at 340 nm exceeds 0.1 AU and/or it is visibly turbid or contains particles)”; the “Solubility, Condition 3” value is “+ (“+” denotes solubility at the given condition, as determined by UV absorbance being less than 0.1 AU at 340 nm and the sample being clear when manually inspected)”; the “Solubility, Condition 4” value was “+ (“+” denotes solubility at the given condition, as determined by UV absorbance being less than 0.1 AU at 340 nm and the sample being clear when manually inspected)”. In data set [2], the “Solubility, Condition 5” value was “+ (“+” denotes solubility at the given condition, as determined by UV absorbance being less than 0.1 AU at 340 nm and the sample being clear when manually inspected)”.
For `CC[C@H](C)[C@@H]1NC(=O)[C@@H](NC(=O)[C@H](Cc2ccc(O)cc2)NC(C)=O)CSSC[C@@H](C(=O)N[C@H](C(=O)NCC(=O)N[C@@H](C)C(=O)N[C@@H](CCC(=O)O)C(=O)N[C@@H](CO)C(N)=O)[C@@H](C)O)NC(=O)[C@H](CCCNC(=N)N)NC(=O)[C@H](Cc2c[nH]cn2)NC(=O)[C@H](CCC(=O)O)NC(=O)CNC(=O)[C@H](Cc2c[nH]c3ccccc23)NC(=O)[C@H](CC(=O)O)NC(=O)[C@H](CCC(N)=O)NC(=O)[C@H](Cc2c[nH]c3ccccc23)NC1=O` [Compound 66] (Ac-YCIWQDWGEHRCTGAES-NH2; disulfide 2-12), the IC50 in data set [1] (setting [3]) was under 100 nM. In addition, in data set [2], the “Solubility, Condition 1” value was “− (“−” denotes lack of solubility at the given condition, as UV absorbance at 340 nm exceeds 0.1 AU and/or it is visibly turbid or contains particles)”; the “Solubility, Condition 2” value is “− (“−” denotes lack of solubility at the given condition, as UV absorbance at 340 nm exceeds 0.1 AU and/or it is visibly turbid or contains particles)”; the “Solubility, Condition 3” value is “+ (“+” denotes solubility at the given condition, as determined by UV absorbance being less than 0.1 AU at 340 nm and the sample being clear when manually inspected)”; the “Solubility, Condition 4” value is “+ (“+” denotes solubility at the given condition, as determined by UV absorbance being less than 0.1 AU at 340 nm and the sample being clear when manually inspected)”. For the same compound, the “Solubility, Condition 5” value in data set [2] was “+ (“+” denotes solubility at the given condition, as determined by UV absorbance being less than 0.1 AU at 340 nm and the sample being clear when manually inspected)”.
Take `CC[C@H](C)[C@@H]1NC(=O)[C@@H](NC(=O)[C@H](Cc2ccccc2)NC(C)=O)CSSC[C@@H](C(=O)N[C@H](C(=O)NCC(=O)N[C@@H](C)C(=O)N[C@@H](CCC(=O)O)C(=O)N[C@@H](CO)C(=O)N[C@@H](CCCCNC(=O)COCCOCCNC(=O)COCCOCCNC(=O)CC[C@H](NC(=O)CCCCCCCCCCCCCCC(=O)O)C(=O)O)C(N)=O)[C@@H](C)O)NC(=O)[C@H](CCCNC(=N)N)NC(=O)[C@H](Cc2c[nH]cn2)NC(=O)[C@H](CCC(=O)O)NC(=O)CNC(=O)[C@H](Cc2c[nH]c3ccccc23)NC(=O)[C@H](CC(=O)O)NC(=O)[C@H](CCC(N)=O)NC(=O)[C@H](Cc2cn(C)c3ccccc23)NC1=O` [Compound 102] (Ac-FCI[Trp(1-Me)]QDWGEHRCTGAESK([AEEA-AEEA-γGlu-C16 diacid])-NH2; disulfide 2-12): the IC50 in data set [1] (setting [3]) was under 100 nM. In data set [2], the “Solubility, Condition 1” value is recorded as “− (“−” denotes lack of solubility at the given condition, as UV absorbance at 340 nm exceeds 0.1 AU and/or it is visibly turbid or contains particles)”; the “Solubility, Condition 2” value was “+ (“+” denotes solubility at the given condition, as determined by UV absorbance being less than 0.1 AU at 340 nm and the sample being clear when manually inspected)”; the “Solubility, Condition 3” value was “+ (“+” denotes solubility at the given condition, as determined by UV absorbance being less than 0.1 AU at 340 nm and the sample being clear when manually inspected)”; the “Solubility, Condition 4” value is “+ (“+” denotes solubility at the given condition, as determined by UV absorbance being less than 0.1 AU at 340 nm and the sample being clear when manually inspected)”. For the same compound, the “Solubility, Condition 5” value in data set [2] is “+ (“+” denotes solubility at the given condition, as determined by UV absorbance being less than 0.1 AU at 340 nm and the sample being clear when manually inspected)”.
